Laboratory results: patent US20240166643A1, “IMIDAZO[1,2-A]PYRIDINE COMPOUNDS AND THEIR USE IN THERAPY” (Imperial College Innovations Limited, priority 2020, published 2024)
Where two headings read alike, the source gives them in different places.

Columns and labels:
SU-DHL-10 cells = experiment: Cell cytotoxicity in SU-DHL-10 cell line (CellTiter-Glo); format: cell-based; details: Homo sapiens, read-out: SU-DHL-10 EC50
Experimental: Assay (c): Cell Cytotoxicity in SU-DHL-10 Cell Line
Cell Culture: SU-DHL-10 (ATCC CRL-2963) were cultured in RPMI-media (ATCC, 30-2001).
Cultures were maintained by the addition of fresh medium and inoculum of 8.0×10^4 to 2.0×10^5 cells/mL. Subculturing was done when the cell density was between 1.0×10^6 and 2.0×10^6 cells/mL.
Cell seeding: 5000 cells/well were plated in 384-white clear bottom plates (Greiner, 781098) for the assay in 20 μl growth media.
Top dose: 1 mM stocks of each compound was prepared in 100% DMSO and thereafter diluted 333.33 fold in growth media to obtain 3 μM (0.3% DMSO) mid stock of each compound, from which 10 μl was added to assay wells (with 20 μl cells) for a final concentration of 1 μM (0.1% DMSO). For subsequent dose-response: 1 mM stock was diluted 3 fold in DMSO before subjecting to above dilution pattern to obtain final 0.1% DMSO concentration.
Treatment: Cells were incubated with the compounds for 48 h at 37° C. in presence of 5% CO2.
Assay Procedure: The assay plate and its contents were equilibrated at room temperature for approximately 30 minutes. CellTiter-Glo® Reagent was added equal to the volume (1;1) of cell culture medium present in each well. The contents were mixed for 5 minutes on an orbital shaker to induce cell lysis. The plate was allowed to incubate at room temperature for 10 minutes to stabilize luminescent signal. The luminescence was recorded with an integration time of 0.25 seconds in EnVision 2104 Multilabel Plate Reader (Perkin Elmer).
Calculation: % Cytotoxicity was calculated considering 100% cell death in wells treated with 0.1% TritonX.

Human NMT1 (HsNMT1) = Human NMT1 (HsNMT1) (Homo sapiens, UniProt P30419); experiment: biochemical
Human NMT1 (HsNMT1), sequence (P30419 whole entry, looked up): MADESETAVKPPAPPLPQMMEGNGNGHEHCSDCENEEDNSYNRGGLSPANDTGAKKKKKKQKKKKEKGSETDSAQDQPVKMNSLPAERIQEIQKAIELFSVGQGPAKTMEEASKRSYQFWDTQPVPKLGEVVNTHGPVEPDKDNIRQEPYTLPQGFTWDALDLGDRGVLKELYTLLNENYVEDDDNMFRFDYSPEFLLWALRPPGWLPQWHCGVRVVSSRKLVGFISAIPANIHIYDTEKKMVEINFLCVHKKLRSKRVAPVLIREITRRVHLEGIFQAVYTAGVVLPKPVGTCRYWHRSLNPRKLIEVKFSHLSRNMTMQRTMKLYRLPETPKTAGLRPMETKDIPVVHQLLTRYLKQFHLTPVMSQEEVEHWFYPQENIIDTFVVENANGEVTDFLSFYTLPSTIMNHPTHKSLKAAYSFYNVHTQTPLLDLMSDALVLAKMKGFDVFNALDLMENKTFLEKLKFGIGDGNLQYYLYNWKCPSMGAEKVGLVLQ

IC50 (Human NMT1 (HsNMT1)) [nM]	SMILES	EC50 (SU-DHL-10 cells; SU-DHL10, CellTiter-Glo, 48 h) [nM]	EC50 (SU-DHL-10 cells; SU-DHL10, 48 h) [nM]
5	CN1CCCN(c2nc(N3CC(C(=O)NC(C)(C)c4cnc5ccccn45)C3)c3ccsc3n2)CC1 [Example 113, N-(2-(imidazo[1,2-a]pyridin-3-yl)propan-2-yl)-1-(2-(4-methyl-1,4-diazepan-1-yl)thieno[2,3-d]pyrimidin-4-yl)azetidine-3-carboxamide]	33	–
6	Cc1cc2c(N3CC(C(=O)NC(C)(C)c4cnc5ccccn45)C3)nc(N3CCCN(C)CC3)nc2s1 [Example 117, N-(2-(imidazo[1,2-a]pyridin-3-yl)propan-2-yl)-1-(6-methyl-2-(4-methyl-1,4-diazepan-1-yl)thieno[2,3-d]pyrimidin-4-yl)azetidine-3-carboxamide]	66	–
4	CN1CCCN(c2ncc(Cl)c(N3CC(C(=O)N(C)C(C)(C)c4cnc5ccccn45)C3)n2)CC1 [Example 121, 1-(5-chloro-2-(4-methyl-1,4-diazepan-1-yl)pyrimidin-4-yl)-N-(2-(Imidazo[1,2-a]pyridin-3-yl)propan-2-yl)-N-methylazetidine-3-carboxamide]	42	–
4	CN1CCCN(c2nc(N3CC(C(=O)N(C)C(C)(C)c4cnc5ccccn45)C3)c3sccc3n2)CC1 [Example 122, N-(2-(imidazo[1,2-a]pyridin-3-yl)propan-2-yl)-N-methyl-1-(2-(4-methyl-1,4-diazepan-1-yl)thieno[3,2-d]pyrimidin-4-yl)azetidine-3-carboxamide]	50	–
–	C[C@H]1CNCCN1c1nc(N2CC(C(=O)N(C)C(C)(C)c3cnc4ccccn34)C2)c2sccc2n1 [Example 125, (S)—N-(2-(imidazo[1,2-a]pyridin-3-yl)propan-2-yl)-N-methyl-1-(2-(2-methylpiperazin-1-yl)thieno[3,2-d]pyrimidin-4-yl)azetidine-3-carboxamide]	361	–
5	C[C@H]1CNCCN1c1nc(N2CC(C(=O)NC(C)(C)c3cnc4ccccn34)C2)c2sccc2n1 [Example 126, (S)—N-(2-(Imidazo[1,2-a]pyridin-3-yl)propan-2-yl)-1-(2-(2-methylpiperazin-1-yl)thieno[3,2-d]pyrimidin-4-yl)azetidine-3-carboxamide]	265	–
–	CN(C(=O)C1CN(c2nc(N3CCNC(C)(C)C3)ncc2Cl)C1)C(C)(C)c1cnc2ccccn12 [Example 127, 1-(5-chloro-2-(3,3-dimethylpiperazin-1-yl)pyrimidin-4-yl)-N-(2-(Imidazo[1,2-a]pyridin-3-yl)propan-2-yl)-N-methylazetidine-3-carboxamide]	609	–
–	C[C@H]1CN(c2ncc(Cl)c(N3CC(C(=O)N(C)C(C)(C)c4cnc5ccccn45)C3)n2)CCN1 [Example 139, (S)-1-(5-chloro-2-(3-methylpiperazin-1-yl)pyrimidin-4-yl)-N-(2-(Imidazo[1,2-a]pyridin-3-yl)propan-2-yl)-N-methylazetidine-3-carboxamide]	542	–
–	CN(C(=O)C1CN(c2nc(N3CCNCC3(C)C)ncc2Cl)C1)C(C)(C)c1cnc2ccccn12 [Example 149, 1-(5-chloro-2-(2,2-dimethylpiperazin-1-yl)pyrimidin-4-yl)-N-(2-(Imidazo[1,2-a]pyridin-3-yl)propan-2-yl)-N-methylazetidine-3-carboxamide]	145	–
–	CN(C(=O)C1CN(c2nc(N3CCNCC34CC4)ncc2Cl)C1)C(C)(C)c1cnc2ccccn12 [Example 150, 1-(5-chloro-2-(4,7-diazaspiro[2.5]octan-4-yl)pyrimidin-4-yl)-N-(2-(imidazo[1,2-a]pyridin-3-yl)propan-2-yl)-N-methylazetidine-3-carboxamide]	> 1000	–

SMILES	IC50 (Human NMT1 (HsNMT1)) [nM]	EC50 (SU-DHL-10 cells; SU-DHL10, CellTiter-Glo, 48 h) [nM]	EC50 (SU-DHL-10 cells; SU-DHL10, 48 h) [nM]
Cc1cc2nc(N3CCCN(C)CC3)nc(N3CC(C(=O)NC(C)(C)c4cnc5ccccn45)C3)c2s1 [Example 116, N-(2-(imidazo[1,2-a]pyridin-3-yl)propan-2-yl)-1-(6-methyl-2-(4-methyl-1,4-diazepan-1-yl)thieno[3,2-d]pyrimidin-4-yl)azetidine-3-carboxamide]	6	–	74
